Tests used:
ovine COX-1 = target: T1, ovine COX-1 (Ovis aries, UniProt P05979); assay: COX-1 inhibition assay (LC-MS/MS of PGE2); type: biochemical
T1 sequence (P05979 25-600): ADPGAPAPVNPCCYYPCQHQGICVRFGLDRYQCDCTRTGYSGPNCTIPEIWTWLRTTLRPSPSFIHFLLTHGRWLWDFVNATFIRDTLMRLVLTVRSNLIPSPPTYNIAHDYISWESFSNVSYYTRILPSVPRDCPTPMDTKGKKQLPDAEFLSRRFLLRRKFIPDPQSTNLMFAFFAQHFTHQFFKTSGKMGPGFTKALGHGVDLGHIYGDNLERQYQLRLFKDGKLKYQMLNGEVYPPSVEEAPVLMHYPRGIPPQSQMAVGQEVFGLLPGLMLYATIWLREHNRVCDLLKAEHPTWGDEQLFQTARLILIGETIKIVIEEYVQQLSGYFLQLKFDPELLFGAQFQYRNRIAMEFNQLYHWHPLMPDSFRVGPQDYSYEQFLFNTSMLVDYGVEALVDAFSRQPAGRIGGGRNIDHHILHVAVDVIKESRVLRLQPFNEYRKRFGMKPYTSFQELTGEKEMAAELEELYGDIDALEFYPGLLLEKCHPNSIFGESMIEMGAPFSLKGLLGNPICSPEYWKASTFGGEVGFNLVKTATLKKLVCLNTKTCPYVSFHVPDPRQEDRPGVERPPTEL
Experimental: (§1) Each COX reaction was initiated by adding 20 µL of arachidonic acid in Tris-HCl (pH 8.0) buffer to give a final concentration of 5 µM. The reaction was terminated after 2 min by adding 20 µL of 2.0 M HCl. The surrogate standard PGE2-d4 was added to correct for errors or degradation during sample handling and for variation in injection volume or instrument response during LC-MS/MS. After 30 min, PGE2 and its surrogate standard were extracted from each incubation mixture using 800 µL of hexane/ethyl acetate (50:50, v/v). The organic phase was removed, evaporated to dryness, and reconstituted in 100 µL methanol/water (50:50, v/v) for analysis using LC-MS/MS with an Applied Biosystems AP4000 triple quadrupole mass spectrometer as described previously. The concentration of PGE2 in each sample was measured using LC-MS/MS, and the percent of COX inhibition by each test solution was determined by comparing the amount of PGE2 produced in the experiment with that produced in the negative control incubation. For IC50 value determination, 12 different concentrations of each inhibitor were assayed three times. The IC50 value of each inhibitor toward COX-1 or COX-2 was determined by plotting and analyzing the inhibition curve data using Graph Pad Prism 5 software. The selectivity of each inhibitor was calculated as the ratio of the IC50 values (COX-1/COX-2).

iNOS mRNA expression = iNOS mRNA expression in LPS-treated RAW 264.7 cells (real time quantitative PCR); type: cell-based; conditions: 50 µM
Source text: (§2) Figure 2 Effect of phenazines on COX-2 (black) and iNOS (gray) mRNA expression in RAW 264.7 cells. Total RNA was isolated using the TRIZOL® Reagent method (Invitrogen) from RAW 264.7 cells (2 × 10^5 cells/well) after treatment with samples. cDNA was synthesized using the RT^2 First Strand Kit (C-03, SA Biosciences) protocol. cDNA was used for quantitative real time PCRs with fluorescent Power SyBR® Green PCR master mix (Applied Biosystems), employing GAPDH, iNOS, COX-2 specific primers, and a 7300 Real Time PCR System (Applied Biosystems). The results were derived from two independent RNA preparations employing identical triplicates in each analysis and quantitated using GAPDH as the internal control, following the manufacturer’s instructions. (A) GAPDH standard curve for quantitation of iNOS and COX-2 expression; (B) Levels of COX-2 (black) and iNOS (gray) mRNA expression. The concentration and duration of treatment had no significant effect on the viability of Raw 264.7 cells.
(§3) Total mRNA samples were isolated, and cDNA was amplified with specific primers, using GAPDH as housekeeping gene. LPS induced the expression of COX-2 and iNOS mRNA by approximately 11- and 24-fold, respectively. […]
(§4) RAW 264.7 cells (2 × 10^5 cells/well) were treated with test samples and total RNA was isolated with TRIZOL® Reagent (Invitrogen). […] The results were derived from two independent RNA preparations employing identical triplicates in each analysis and quantified using GAPDH as the internal control, following the manufacturer’s instructions. The fluorescence intensity (Rn) corresponding to the cycle of threshold value (Ct) is used to quantitate a given mRNA, employing the GAPDH standard curve (Figure 3A). The equation Y = −3.9408 X + 31.791 was used to quantify the relative mRNA content, where Y represents the number of cycles corresponding to the Ct (i.e., fluorescence intensity for a given mRNA species), and X represents the log copy number (C0) from which the relative content of mRNA was quantitated. […]

L1210 cells = tested on: L1210 cells; parameters: method as in PMID 2753825; conditions: cited from earlier work
human COX-2 = target: T2, human COX-2 (Homo sapiens, UniProt P35354); assay: COX-2 inhibition assay (LC-MS/MS of PGE2); type: biochemical; conditions: for IC50: human COX-2; for Selectivity COX-1/COX-2: ratio of the IC50 values (COX-1/COX-2)
T2 sequence (P35354 18-604): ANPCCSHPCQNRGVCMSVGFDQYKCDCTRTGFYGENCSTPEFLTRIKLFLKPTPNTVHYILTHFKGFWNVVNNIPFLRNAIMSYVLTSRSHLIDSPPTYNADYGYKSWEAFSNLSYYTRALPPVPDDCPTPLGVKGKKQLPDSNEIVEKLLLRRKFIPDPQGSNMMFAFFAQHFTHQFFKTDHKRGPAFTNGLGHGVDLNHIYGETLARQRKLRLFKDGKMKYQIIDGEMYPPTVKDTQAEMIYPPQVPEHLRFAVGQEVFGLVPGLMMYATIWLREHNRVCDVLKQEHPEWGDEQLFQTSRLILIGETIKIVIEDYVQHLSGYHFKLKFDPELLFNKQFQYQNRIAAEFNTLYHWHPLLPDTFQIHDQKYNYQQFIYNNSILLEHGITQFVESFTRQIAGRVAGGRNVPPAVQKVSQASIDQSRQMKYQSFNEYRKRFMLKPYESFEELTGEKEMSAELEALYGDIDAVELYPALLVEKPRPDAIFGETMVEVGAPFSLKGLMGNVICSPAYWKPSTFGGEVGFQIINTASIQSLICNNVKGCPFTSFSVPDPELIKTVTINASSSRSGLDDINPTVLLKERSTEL
Experimental: as §1

5-α-reductase = tested on: 5-α-reductase; parameters: method as in PMID 2503481; conditions: derived from rat prostate; cited from earlier work
COX-2 mRNA expression = COX-2 mRNA expression in LPS-treated RAW 264.7 cells (real time quantitative PCR); type: cell-based; conditions: 50 µM
Source text: as §2, §3, §4

| Compound | IC50 (ovine COX-1) [µM] | suppression of iNOS mRNA expression (iNOS mRNA expression) [%] | growth inhibition of L1210 cells in culture (L1210 cells) | IC50 (human COX-2) [µM] | Selectivity COX-1/COX-2 (human COX-2) | inhibition of 5-α-reductase (5-α-reductase) | suppression of COX-2 mRNA expression (COX-2 mRNA expression) [%] | enhancement of inhibition of the catalytic activity of COX-2 (human COX-2; phenazine 1 compared with lavanducyanin) [fold] | Selectivity COX-1/COX-2 (human COX-2; listed as phenazine 1) |
| --- | --- | --- | --- | --- | --- | --- | --- | --- | --- |
| CC1=C(Cn2c3cccc(=O)c-3nc3ccccc32)CCC(C)(C)C1 [Lavanducyanin 3, lavanducyanin] | 30 ± 1.08 | 46 | strongly inhibits the growth | 34 ± 1.1 | 0.88 | competitively inhibits | 51 |  |  |
| CC(C)=CCn1c2ccc(Br)c(=O)c-2nc2ccccc21 [Phenazine 2] | 5.6 ± 0.61 | 43 |  | 7.2 ± 0.13 | 0.78 |  | 50 |  |  |
| CC1=C(Cn2c3ccc(Br)c(=O)c-3nc3ccccc32)CCC(C)(C)C1 [Phenazine 1] | 11 ± 0.53 | 21 |  | 4 ± 0.41 | 2.75 |  | 40 | ~10 | approximately 3 |

Source: PMC3297008, “Novel Marine Phenazines as Potential Cancer Chemopreventive and Anti-Inflammatory Agents” (Marine Drugs, 2012)
